Assay results as given in patent US20240293400A1, “NOVEL AZAINDOLE DERIVATIVES AS ANTIVIRAL AGENTS” (Centre National de la Recherche Scientifique, priority 2021, published 2024).

Legend:
ABL1 = ABL1 (Homo sapiens (Human), UniProt P00519); experiment: Kinase panel Z'-LYTE/Adapta SelectScreen; format: biochemical; details: 100 nM in 1% DMSO
Description: (§1) The inhibitory activity of the compounds on a panel of kinases including, inter alia, AXL and FLT3 was evaluated by Thermo Fisher Scientific using Z′-LYTE® and Adapta® Select Screen technology.
(§2) The fluorescence-based biochemical test uses coupled enzymes and is based on the difference in sensitivity of the phosphorylated and non-phosphorylated peptides to proteolytic cleavage. The peptide substrate is labeled with 2 fluorophores—one at each end—allowing fluorescence transfer (FRET).
(§3) Compounds 1, 2 and 3 are tested in wells at the final concentration of 100 nM in 1% DMSO.

CHUK (IKKalpha) = CHUK (IKKalpha) (Homo sapiens (Human), UniProt O15111); experiment: Kinase panel Z'-LYTE/Adapta SelectScreen; format: biochemical; details: 100 nM in 1% DMSO
Description: as §1, §2, §3

FGFR1 = FGFR1 (Homo sapiens (Human), UniProt P11362); experiment: Kinase panel Z'-LYTE/Adapta SelectScreen; format: biochemical; details: 100 nM in 1% DMSO
Chain of FGFR1 (P11362 22-822): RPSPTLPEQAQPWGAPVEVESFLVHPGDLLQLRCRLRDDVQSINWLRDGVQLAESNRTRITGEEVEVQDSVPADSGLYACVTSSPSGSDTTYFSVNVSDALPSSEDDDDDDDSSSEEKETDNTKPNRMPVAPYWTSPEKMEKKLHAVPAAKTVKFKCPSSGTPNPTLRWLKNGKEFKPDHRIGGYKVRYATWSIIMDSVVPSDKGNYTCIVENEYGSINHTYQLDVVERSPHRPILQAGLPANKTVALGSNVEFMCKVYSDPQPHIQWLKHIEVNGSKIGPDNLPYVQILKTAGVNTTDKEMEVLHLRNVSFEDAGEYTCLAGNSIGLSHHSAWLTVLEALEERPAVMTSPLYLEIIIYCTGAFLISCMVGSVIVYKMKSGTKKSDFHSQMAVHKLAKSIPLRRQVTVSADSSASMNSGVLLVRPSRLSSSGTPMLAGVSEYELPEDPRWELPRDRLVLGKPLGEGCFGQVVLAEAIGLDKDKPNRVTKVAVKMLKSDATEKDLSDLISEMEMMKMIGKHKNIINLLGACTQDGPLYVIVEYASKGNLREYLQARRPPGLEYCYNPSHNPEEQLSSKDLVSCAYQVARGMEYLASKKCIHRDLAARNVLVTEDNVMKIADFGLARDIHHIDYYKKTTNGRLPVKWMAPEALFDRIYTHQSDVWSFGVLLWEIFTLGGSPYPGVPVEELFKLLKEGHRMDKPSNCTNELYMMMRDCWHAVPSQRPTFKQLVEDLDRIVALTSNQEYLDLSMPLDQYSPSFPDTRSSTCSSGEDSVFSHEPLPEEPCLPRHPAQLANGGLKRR
Description: as §1, §2, §3

FGFR2 = FGFR2 (Homo sapiens (Human), UniProt P21802); experiment: Kinase panel Z'-LYTE/Adapta SelectScreen; format: biochemical; details: 100 nM in 1% DMSO
Chain of FGFR2 (P21802 22-821): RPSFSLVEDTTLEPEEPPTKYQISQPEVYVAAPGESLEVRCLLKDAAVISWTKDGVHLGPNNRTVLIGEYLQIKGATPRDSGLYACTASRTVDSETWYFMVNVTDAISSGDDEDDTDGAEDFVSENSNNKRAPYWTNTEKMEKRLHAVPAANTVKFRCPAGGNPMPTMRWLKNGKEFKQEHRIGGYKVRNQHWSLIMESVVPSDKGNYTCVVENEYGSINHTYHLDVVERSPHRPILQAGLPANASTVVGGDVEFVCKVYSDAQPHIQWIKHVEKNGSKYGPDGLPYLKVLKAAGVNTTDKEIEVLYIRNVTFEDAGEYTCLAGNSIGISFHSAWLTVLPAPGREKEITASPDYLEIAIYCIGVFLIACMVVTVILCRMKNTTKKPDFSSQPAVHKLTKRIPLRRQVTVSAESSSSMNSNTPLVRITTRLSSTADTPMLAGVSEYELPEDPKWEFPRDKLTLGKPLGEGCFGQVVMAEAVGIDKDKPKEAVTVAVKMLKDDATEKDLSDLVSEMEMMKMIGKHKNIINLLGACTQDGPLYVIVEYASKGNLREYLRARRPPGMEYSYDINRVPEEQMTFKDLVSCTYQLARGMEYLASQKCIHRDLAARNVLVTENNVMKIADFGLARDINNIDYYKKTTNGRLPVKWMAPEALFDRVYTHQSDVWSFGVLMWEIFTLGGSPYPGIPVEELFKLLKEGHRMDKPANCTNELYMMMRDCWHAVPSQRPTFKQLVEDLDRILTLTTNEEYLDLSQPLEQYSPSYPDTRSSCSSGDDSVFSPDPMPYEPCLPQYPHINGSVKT
Description: as §1, §2, §3

IKBKB (IKK beta) = IKBKB (IKK beta) (Homo sapiens (Human), UniProt O14920); experiment: Kinase panel Z'-LYTE/Adapta SelectScreen; format: biochemical; details: 100 nM in 1% DMSO
Chain of IKBKB (IKK beta) (O14920 whole entry): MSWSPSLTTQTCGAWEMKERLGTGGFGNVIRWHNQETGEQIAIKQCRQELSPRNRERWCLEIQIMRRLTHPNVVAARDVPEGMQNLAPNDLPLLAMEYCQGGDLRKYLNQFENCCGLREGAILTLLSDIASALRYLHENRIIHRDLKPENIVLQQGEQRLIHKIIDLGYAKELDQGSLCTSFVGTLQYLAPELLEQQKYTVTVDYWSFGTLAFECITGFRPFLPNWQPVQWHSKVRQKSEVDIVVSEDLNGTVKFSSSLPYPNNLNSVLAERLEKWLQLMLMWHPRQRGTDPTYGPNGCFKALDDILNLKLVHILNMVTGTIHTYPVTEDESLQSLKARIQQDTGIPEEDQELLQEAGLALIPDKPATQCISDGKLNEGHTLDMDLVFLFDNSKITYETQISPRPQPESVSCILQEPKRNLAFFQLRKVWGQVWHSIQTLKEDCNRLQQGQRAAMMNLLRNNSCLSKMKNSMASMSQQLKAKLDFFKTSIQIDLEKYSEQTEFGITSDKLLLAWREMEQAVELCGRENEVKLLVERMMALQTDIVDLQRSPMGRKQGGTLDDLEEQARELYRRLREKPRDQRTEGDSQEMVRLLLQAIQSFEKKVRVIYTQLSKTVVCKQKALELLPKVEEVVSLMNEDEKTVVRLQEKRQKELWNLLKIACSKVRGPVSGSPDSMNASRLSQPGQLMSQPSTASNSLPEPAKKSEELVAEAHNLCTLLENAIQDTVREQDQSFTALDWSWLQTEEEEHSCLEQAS
Description: as §1, §2, §3

JAK2 = JAK2 (Homo sapiens (Human), UniProt O60674); experiment: Kinase panel Z'-LYTE/Adapta SelectScreen; format: biochemical; details: 100 nM in 1% DMSO
Description: as §1, §2, §3

KDR (VEGFR2) = KDR (VEGFR2) (Homo sapiens (Human), UniProt P35968); experiment: Kinase panel Z'-LYTE/Adapta SelectScreen; format: biochemical; details: 100 nM in 1% DMSO
Chain of KDR (VEGFR2) (P35968 20-1356): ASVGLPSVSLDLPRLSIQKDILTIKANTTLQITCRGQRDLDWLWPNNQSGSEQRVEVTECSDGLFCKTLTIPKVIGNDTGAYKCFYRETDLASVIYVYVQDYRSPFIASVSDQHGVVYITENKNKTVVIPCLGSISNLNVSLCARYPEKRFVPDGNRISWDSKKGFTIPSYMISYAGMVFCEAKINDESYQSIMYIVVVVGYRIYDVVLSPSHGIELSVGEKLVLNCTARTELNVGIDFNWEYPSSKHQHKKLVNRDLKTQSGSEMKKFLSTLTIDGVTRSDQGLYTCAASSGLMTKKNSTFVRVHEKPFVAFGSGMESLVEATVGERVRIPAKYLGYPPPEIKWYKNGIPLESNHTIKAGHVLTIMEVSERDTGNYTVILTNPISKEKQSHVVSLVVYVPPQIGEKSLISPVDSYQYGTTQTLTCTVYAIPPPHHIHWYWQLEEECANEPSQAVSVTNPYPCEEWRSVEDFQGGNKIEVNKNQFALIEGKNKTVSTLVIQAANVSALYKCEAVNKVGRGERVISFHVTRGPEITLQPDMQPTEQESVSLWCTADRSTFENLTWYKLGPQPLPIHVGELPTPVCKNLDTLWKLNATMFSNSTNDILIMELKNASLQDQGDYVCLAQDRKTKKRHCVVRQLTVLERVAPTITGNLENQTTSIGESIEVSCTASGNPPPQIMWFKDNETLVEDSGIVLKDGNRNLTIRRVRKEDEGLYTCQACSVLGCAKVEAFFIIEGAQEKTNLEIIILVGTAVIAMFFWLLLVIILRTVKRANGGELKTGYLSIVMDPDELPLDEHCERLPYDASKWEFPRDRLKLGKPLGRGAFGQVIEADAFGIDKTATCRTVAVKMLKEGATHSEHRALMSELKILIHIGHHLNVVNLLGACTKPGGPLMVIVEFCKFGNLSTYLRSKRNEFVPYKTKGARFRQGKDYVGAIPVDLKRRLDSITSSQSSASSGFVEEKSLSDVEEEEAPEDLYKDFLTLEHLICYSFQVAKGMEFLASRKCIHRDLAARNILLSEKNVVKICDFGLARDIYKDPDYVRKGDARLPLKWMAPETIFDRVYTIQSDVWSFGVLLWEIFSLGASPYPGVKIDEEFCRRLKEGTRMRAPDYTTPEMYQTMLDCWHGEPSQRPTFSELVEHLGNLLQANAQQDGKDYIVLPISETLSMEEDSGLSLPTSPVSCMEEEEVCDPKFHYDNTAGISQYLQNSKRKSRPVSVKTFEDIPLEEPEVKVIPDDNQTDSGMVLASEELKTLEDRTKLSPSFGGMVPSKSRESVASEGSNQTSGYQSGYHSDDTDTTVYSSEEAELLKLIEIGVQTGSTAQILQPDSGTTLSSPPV
Description: as §1, §2, §3

MAPK1 (ERK2) = MAPK1 (ERK2) (Homo sapiens (Human), UniProt P28482); experiment: Kinase panel Z'-LYTE/Adapta SelectScreen; format: biochemical; details: 100 nM in 1% DMSO
Description: as §1, §2, §3

MERTK (cMER) = MERTK (cMER) (Homo sapiens (Human), UniProt Q12866); experiment: Kinase panel Z'-LYTE/Adapta SelectScreen; format: biochemical; details: 100 nM in 1% DMSO
Description: as §1, §2, §3

NUK1 (ARK5) = NUK1 (ARK5) (Homo sapiens (Human), UniProt O60285); experiment: Kinase panel Z'-LYTE/Adapta SelectScreen; format: biochemical; details: 100 nM in 1% DMSO
Chain of NUK1 (ARK5) (O60285 whole entry): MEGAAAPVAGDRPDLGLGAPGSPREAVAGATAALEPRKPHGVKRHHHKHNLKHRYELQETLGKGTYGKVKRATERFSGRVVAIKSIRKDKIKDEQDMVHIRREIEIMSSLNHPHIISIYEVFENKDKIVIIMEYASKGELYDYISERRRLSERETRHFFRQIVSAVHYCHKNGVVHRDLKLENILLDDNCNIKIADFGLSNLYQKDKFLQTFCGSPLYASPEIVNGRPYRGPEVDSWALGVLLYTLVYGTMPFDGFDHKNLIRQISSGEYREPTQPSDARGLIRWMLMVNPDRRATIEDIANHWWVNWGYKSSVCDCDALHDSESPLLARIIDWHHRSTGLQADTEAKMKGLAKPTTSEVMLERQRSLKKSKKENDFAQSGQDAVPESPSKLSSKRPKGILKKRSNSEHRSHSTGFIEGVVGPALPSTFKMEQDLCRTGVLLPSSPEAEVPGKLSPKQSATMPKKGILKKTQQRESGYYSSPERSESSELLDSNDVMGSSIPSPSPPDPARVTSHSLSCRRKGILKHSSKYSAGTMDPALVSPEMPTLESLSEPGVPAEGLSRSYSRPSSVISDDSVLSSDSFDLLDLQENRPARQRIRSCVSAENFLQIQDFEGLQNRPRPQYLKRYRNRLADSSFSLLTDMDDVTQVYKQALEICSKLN
Description: as §1, §2, §3

PLK1 = PLK1 (Homo sapiens (Human), UniProt P53350); experiment: Kinase panel Z'-LYTE/Adapta SelectScreen; format: biochemical; details: 100 nM in 1% DMSO
Description: as §1, §2, §3

PRKAA (PKA) = PRKAA (PKA) (Homo sapiens (Human), UniProt P17612); experiment: Kinase panel Z'-LYTE/Adapta SelectScreen; format: biochemical; details: 100 nM in 1% DMSO
Description: as §1, §2, §3

RET = RET (Homo sapiens (Human), UniProt P07949); experiment: Kinase panel Z'-LYTE/Adapta SelectScreen; format: biochemical; details: 100 nM in 1% DMSO
Description: as §1, §2, §3

ROCK2 = ROCK2 (Homo sapiens (Human), UniProt O75116); experiment: Kinase panel Z'-LYTE/Adapta SelectScreen; format: biochemical; details: 100 nM in 1% DMSO
Description: as §1, §2, §3

RPS6KA1 (RSX1) = RPS6KA1 (RSX1) (Homo sapiens (Human), UniProt Q15418); experiment: Kinase panel Z'-LYTE/Adapta SelectScreen; format: biochemical; details: 100 nM in 1% DMSO
Chain of RPS6KA1 (RSX1) (Q15418 whole entry): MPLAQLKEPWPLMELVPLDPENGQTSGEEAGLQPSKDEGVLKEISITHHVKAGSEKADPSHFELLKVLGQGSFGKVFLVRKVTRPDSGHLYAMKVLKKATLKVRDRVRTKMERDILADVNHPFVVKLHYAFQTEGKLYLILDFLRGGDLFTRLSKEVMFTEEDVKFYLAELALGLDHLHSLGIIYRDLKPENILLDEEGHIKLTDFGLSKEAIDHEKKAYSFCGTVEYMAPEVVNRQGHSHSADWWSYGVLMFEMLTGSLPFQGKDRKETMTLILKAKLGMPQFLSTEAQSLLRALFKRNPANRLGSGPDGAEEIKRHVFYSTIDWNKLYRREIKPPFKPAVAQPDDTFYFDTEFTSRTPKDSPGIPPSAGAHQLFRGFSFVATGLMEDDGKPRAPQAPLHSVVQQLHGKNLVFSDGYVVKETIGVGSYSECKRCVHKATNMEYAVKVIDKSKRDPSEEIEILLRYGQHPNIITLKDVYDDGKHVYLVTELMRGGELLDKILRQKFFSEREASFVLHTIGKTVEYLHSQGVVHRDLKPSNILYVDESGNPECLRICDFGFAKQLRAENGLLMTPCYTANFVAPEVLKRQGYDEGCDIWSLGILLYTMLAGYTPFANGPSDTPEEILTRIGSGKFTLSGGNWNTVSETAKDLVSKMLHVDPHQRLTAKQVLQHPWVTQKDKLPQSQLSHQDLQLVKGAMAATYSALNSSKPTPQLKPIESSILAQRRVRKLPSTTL
Description: as §1, §2, §3

SYK = SYK (Homo sapiens (Human), UniProt P43405); experiment: Kinase panel Z'-LYTE/Adapta SelectScreen; format: biochemical; details: 100 nM in 1% DMSO
Description: as §1, §2, §3

TYRO3 (RSE) = TYRO3 (RSE) (Homo sapiens (Human), UniProt Q06418); experiment: Kinase panel Z'-LYTE/Adapta SelectScreen; format: biochemical; details: 100 nM in 1% DMSO
Description: as §1, §2, §3

WNV virus, Kunjin strain = experiment: Antiviral activity against the WNV virus, Kunjin strain in HeLa cells; format: cell-based; details: summary table
SARS-COV-2 = experiment: Anti-SARS-COV-2 activity in primary human bronchial epithelium model (MucilAir); format: cell-based; details: 1.25 μM, 24 hours, qRT-PCR

Row | SMILES | Percentage inhibition ABL1 (ABL1) [%] | Percentage inhibition CHUK (IKKalpha) (CHUK (IKKalpha)) [%] | Percentage inhibition FGFR1 (FGFR1) [%] | Percentage inhibition FGFR2 (FGFR2) [%] | Percentage inhibition IKBKB (IKK beta) (IKBKB (IKK beta)) [%] | Percentage inhibition JAK2 (JAK2) [%] | Percentage inhibition KDR (VEGFR2) (KDR (VEGFR2)) [%] | Percentage inhibition MAPK1 (ERK2) (MAPK1 (ERK2)) [%] | Percentage inhibition MERTK (cMER) (MERTK (cMER)) [%] | Percentage inhibition NUK1 (ARK5) (NUK1 (ARK5)) [%] | Percentage inhibition PLK1 (PLK1) [%] | Percentage inhibition PRKAA (PKA) (PRKAA (PKA)) [%] | Percentage inhibition RET (RET) [%] | Percentage inhibition ROCK2 (ROCK2) [%] | Percentage inhibition RPS6KA1 (RSX1) (RPS6KA1 (RSX1)) [%] | Percentage inhibition SYK (SYK) [%] | Percentage inhibition TYRO3 (RSE) (TYRO3 (RSE)) [%] | active on infectious model KUNV (WNV virus, Kunjin strain) | infection of the primary bronchial epithelium by SARS-COV-2 (SARS-COV-2)
1 | CN1CCN(Cc2cccc(-c3cnc4[nH]cc(-c5cc(CNCCc6ccc(O)cc6)ccc5F)c4c3)c2)CC1 [Compound 1] | 38 | 43 | 43 | 58 | 33 | 19 | 85 | 11 | 98 | 74 | 4 | 8 | 84 | 16 | 38 | 4 | 51 | ACTIVE | inhibits the infection
2 | CN1CCN(Cc2cccc(-c3cnc4[nH]cc(-c5cc(CNCc6ccccc6)ccc5F)c4c3)c2)CC1 [Compound 2] | 16 | 14 | 20 | 25 | 28 | 23 | 68 | 6 | 96 | 16 | 4 | 6 | 48 | 5 | 16 | 11 | 67 | ACTIVE | –
3 | CN1CCN(Cc2cccc(-c3cnc4[nH]cc(-c5cc(NC(=O)Nc6ccccc6)ccc5F)c4c3)c2)CC1 [Compound 3] | 22 | 4 | 27 | 37 | 13 | 13 | 55 | 6 | 75 | 14 | 6 | 7 | 23 | 9 | 41 | 8 | 19 | – | –
